Where two headings read alike, the source gives them in different places.
What was measured:
[1] = molecular target: dTRPA1 (Canis lupus familiaris, UniProt A0A8I3Q1Q7); assay: Whole-cell patch clamp block of inward current through dTRPA1; format: cell-based, Dog
Method: (§1) Data for TRPA1 inhibition and the selectivity of TRPA1 inhibition was obtained by this method for the compound of Formula (Ia) and included in Table 1 and Table 2. All currents were recorded in whole-cell configuration using EPC-9 and EPC-10 amplifiers and Patchmaster software (HEKA). […] The standard pipette solution consisted of 140 mM CsAsp, 10 mM EGTA, 10 mM HEPES, 2.27 mM MgCl2, 1.91 mM CaCl2, 4 mM MgATP, and 0.1-0.3 mM Na2GTP, with pH adjusted to 7.2 with CsOH. In addition, a solution containing 145 mM CsCl, 10 mM HEPES, 10 mM EGTA and 1 mM MgCl2 (pH 7.2 adjusted with CsOH) can be used. The standard bath solution contained 150 mM NaCl, 10 mM HEPES, 10 mM glucose, 4.5 mM KCl, 1 mM EGTA, 3 mM MgCl2, with pH adjusted to 7.4 with NaOH. In some instances, 2 mM CaCl2 was added in place of EGTA and the concentration of MgCl2 was reduced to 1 mM.
Data were collected either by continuous recordings at −60 mV or by applying voltage ramps from a holding potential of 0 mV every 4 s. Continuous recordings were collected at 400 Hz and digitally filtered off-line at 10 Hz for presentation. Voltage ramps were applied from −100 mV to 100 mV over the course of 400 ms, and data were collected at 10 kHz and filtered at 2.9 kHz. Inward and outward currents were analyzed from the ramps at −80 and 80 mV, respectively. Liquid junction potential correction was not used.
Solutions were switched using a gravity-fed continuous focal perfusion system. To achieve rapid temperature changes, two temperature control and perfusion systems were employed simultaneously. For temperatures ≧22° C., a Warner Instruments bipolar temperature controller (TC-344B) and inline heater (SHM-8) were used. […] Temperatures were confirmed using a thermistor (Warner Instruments, TA-29), with temperatures at the recorded cell estimated to be within +/−2° C. of those reported.
IC50 of compounds was estimated by testing each compound at 5 micromolar and 500 nanomolar. […] IC50 for compounds between 500 nanomolar and 5 micromolar was similarly estimated. […]

[2] = molecular target: T1, hTRPC5 (Homo sapiens, UniProt Q9UL62); assay: Patch clamp selectivity, hTRPC5; format: cell-based
T1 sequence (Q9UL62 1-973): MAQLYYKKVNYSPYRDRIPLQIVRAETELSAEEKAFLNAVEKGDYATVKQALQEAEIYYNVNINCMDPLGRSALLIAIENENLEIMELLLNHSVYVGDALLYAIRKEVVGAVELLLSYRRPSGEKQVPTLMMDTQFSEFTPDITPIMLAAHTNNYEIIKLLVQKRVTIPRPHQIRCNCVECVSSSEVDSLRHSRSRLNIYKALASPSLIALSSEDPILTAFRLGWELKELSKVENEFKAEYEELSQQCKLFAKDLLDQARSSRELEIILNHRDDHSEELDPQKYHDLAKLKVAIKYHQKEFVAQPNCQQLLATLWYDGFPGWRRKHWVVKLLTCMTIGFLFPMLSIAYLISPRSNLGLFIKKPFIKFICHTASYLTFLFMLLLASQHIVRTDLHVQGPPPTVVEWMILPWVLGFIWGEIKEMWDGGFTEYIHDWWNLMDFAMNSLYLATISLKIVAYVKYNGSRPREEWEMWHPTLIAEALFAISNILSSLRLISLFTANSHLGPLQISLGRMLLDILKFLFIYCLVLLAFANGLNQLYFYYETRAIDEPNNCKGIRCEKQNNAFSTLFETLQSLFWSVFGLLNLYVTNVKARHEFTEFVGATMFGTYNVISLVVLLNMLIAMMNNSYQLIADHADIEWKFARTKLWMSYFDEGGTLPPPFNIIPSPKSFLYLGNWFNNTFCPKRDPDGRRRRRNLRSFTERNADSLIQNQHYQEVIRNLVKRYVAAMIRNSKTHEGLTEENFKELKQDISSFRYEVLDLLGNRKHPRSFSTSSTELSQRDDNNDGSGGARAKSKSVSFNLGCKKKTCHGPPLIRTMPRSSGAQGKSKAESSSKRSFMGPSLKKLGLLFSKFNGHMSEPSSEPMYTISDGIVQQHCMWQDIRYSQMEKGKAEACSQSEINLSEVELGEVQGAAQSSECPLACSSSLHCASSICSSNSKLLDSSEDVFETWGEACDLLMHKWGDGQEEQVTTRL
Method: as §1
Data were collected either by continuous recordings at −60 mV or by applying voltage ramps from a holding potential of 0 mV every 4 s. […] Inward and outward currents were analyzed from the ramps at −80 and 80 mV, respectively. […]
Solutions were switched using a gravity-fed continuous focal perfusion system. […] Temperatures were confirmed using a thermistor (Warner Instruments, TA-29), with temperatures at the recorded cell estimated to be within +/−2° C. of those reported. […]

dTRPA1, sequence (A0A8I3Q1Q7 1-1118): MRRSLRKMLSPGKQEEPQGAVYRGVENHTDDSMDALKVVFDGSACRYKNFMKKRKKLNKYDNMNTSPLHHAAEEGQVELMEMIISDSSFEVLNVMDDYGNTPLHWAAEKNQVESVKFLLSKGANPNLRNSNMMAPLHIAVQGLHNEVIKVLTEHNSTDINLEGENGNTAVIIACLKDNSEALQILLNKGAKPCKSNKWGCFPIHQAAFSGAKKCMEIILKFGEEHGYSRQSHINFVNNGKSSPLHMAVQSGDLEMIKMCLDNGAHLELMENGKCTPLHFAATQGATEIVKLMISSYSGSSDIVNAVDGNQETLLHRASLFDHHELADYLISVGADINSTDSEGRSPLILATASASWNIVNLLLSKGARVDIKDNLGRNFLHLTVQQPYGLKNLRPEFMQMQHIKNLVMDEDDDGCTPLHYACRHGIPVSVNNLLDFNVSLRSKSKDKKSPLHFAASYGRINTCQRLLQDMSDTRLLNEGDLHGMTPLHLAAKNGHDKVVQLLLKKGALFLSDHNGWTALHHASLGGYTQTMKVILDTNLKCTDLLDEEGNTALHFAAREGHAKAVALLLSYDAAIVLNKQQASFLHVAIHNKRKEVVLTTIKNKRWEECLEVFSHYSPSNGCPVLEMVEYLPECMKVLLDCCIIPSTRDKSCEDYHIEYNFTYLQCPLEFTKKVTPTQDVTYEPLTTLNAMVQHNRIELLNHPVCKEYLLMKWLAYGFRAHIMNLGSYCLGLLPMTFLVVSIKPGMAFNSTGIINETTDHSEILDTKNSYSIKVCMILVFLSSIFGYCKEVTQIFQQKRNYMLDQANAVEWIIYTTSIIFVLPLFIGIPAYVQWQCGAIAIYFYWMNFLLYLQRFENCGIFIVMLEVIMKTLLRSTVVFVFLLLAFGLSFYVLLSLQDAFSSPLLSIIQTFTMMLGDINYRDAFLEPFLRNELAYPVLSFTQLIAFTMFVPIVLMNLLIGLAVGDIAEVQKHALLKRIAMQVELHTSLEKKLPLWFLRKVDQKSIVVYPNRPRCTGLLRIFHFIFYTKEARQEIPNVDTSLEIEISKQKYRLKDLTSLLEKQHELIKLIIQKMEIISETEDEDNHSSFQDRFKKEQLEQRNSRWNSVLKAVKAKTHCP

IC50 ([1]; class symbol, read-out: Potency (IC50) Dog): ≥ 100 nM
IC50 ([1]; dTRPA1, Dog, current activation 10 micromolar AITC, read-out: IC50 Inward current): 102 ± 20 nM
Fold Selectivity Compared to TRPA1 [2]: >100 fold
IC50 ([2]; 80 micromolar LaCl3, Inward (−80 mV)): > 10000 nM
Compound: C[C@H]1CCCN1c1ncc(-c2cccc(NC(=O)Cn3cnc4c3c(=O)n(C)c(=O)n4C)n2)cn1 [Formula (Ia)]

— patent publication US20140158116A1, “INHIBITING TRPA1 FOR THE TREATMENT OF ASTHMA” (Cubist Pharmaceuticals, Inc., priority 2012, published 2014)
